The structures appear in SMILES notation.

Consider 19 compounds from patent US11117900B2 (Vertex Pharmaceuticals Incorporated, priority 2012, dated 2021).

The experiment deals with HCT116 colorectal cancer cells. The experiment can be described thus: Cisplatin sensitization assay (96 h MTS cell viability).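 Further: compound concentration needed to lower the IC50 of Cisplatin alone by a set fold.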 It counts as cell-based. Conditions: Cisplatin sensitization value. In short, it runs like this: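 HCT116 cells were dosed simultaneously with compound and cisplatin as a full matrix of 2-fold serial dilutions from 10 μM top final concentration. Incubation was 96 h at 37° C., 5% CO2, followed by 1 h with MTS reagent for the viability read-out. Sensitization values were binned into +++, ++ and + categories.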
Regarding `Nc1nn2cc(F)cnc2c1C(=O)Nc1cncc(F)c1N1CCC(C(=O)N2CCNCC2)CC1` [I-G-12, 2-amino-6-fluoro-N-(5-fluoro-4-(4-(piperazine-1-carbonyl)piperidin-1-yl)pyridin-3-yl)pyrazolo[1,5-a]pyrimidine-3-carboxamide], the “Cisplatin Sensitization Assay” value is given as “+++ (Compounds with a Cisplatin sensitization value of <0.02 μM are marked with “+++.”)”.
Next, `Nc1nn2cc(Cl)cnc2c1C(=O)Nc1cnccc1N1CCC(N2CCC3(COC3)C2)CC1` [I-N-99, N-(4-(4-(2-oxa-6-azaspiro[3.4]octan-6-yl)piperidin-1-yl)pyridin-3-yl)-2-amino-6-chloropyrazolo[1,5-a]pyrimidine-3-carboxamide]: “+++ (Compounds with a Cisplatin sensitization value of <0.02 μM are marked with “+++.”)”; `Cc1cnccc1-c1ccncc1NC(=O)c1c(N)nn2cc(F)cnc12` [I-C-29, 2-amino-6-fluoro-N-(3′-methyl-[4,4′-bipyridin]-3-yl)pyrazolo[1,5-a]pyrimidine-3-carboxamide]: “+++ (Compounds with a Cisplatin sensitization value of <0.02 μM are marked with “+++.”)”; `Nc1nn2cc(F)cnc2c1C(=O)Nc1cnccc1-c1ccc(C(=O)N2CCN(C3COC3)CC2)cc1F` [I-C-51, 2-amino-6-fluoro-N-(4-(2-fluoro-4-(4-(oxetan-3-yl)piperazine-1-carbonyl)phenyl)pyridin-3-yl)pyrazolo[1,5-a]pyrimidine-3-carboxamide]: “++ (Compounds with a Cisplatin sensitization value >0.02 μM but <0.2 μM are marked with “++.”)”.
For `CS(=O)(=O)C1CCN(c2c(Cl)cncc2NC(=O)c2c(N)nn3cc(F)cnc23)C1` (stereo not shown) [I-N-287, 2-amino-N-(5-chloro-4-(3-(methylsulfonyl)pyrrolidin-1-yl)pyridin-3-yl)-6-fluoropyrazolo[1,5-a]pyrimidine-3-carboxamide], the “Cisplatin Sensitization Assay” value is recorded as “+++ (Compounds with a Cisplatin sensitization value of <0.02 μM are marked with “+++.”)”.
`CN1CCN(c2c(Cl)cncc2NC(=O)c2c(N)nn3cc(Cl)cnc23)CC1` [I-N-41, 2-amino-6-chloro-N-(5-chloro-4-(4-methylpiperazin-1-yl)pyridin-3-yl)pyrazolo[1,5-a]pyrimidine-3-carboxamide]: the “Cisplatin Sensitization Assay” value was “+++ (Compounds with a Cisplatin sensitization value of <0.02 μM are marked with “+++.”)”.
Next, `N#CCc1cnc2c(C(=O)Nc3cnccc3OC3CCCNC3)c(N)nn2c1` (racemic) [I-O-2, (R,S)-2-amino-6-(cyanomethyl)-N-(4-(piperidin-3-yloxy)pyridin-3-yl)pyrazolo[1,5-a]pyrimidine-3-carboxamide]: “++ (Compounds with a Cisplatin sensitization value >0.02 μM but <0.2 μM are marked with “++.”)”; `N#CCc1cnc2c(C(=O)Nc3cnccc3N3CCNCC3)c(N)nn2c1` [I-N-89, 2-amino-6-(cyanomethyl)-N-(4-(piperazin-1-yl)pyridin-3-yl)pyrazolo[1,5-a]pyrimidine-3-carboxamide]: “++ (Compounds with a Cisplatin sensitization value >0.02 μM but <0.2 μM are marked with “++.”)”; `Nc1nn2cc(F)cnc2c1C(=O)Nc1cnccc1C1CC1` [I-C-42, 2-amino-N-(4-cyclopropylpyridin-3-yl)-6-fluoropyrazolo[1,5-a]pyrimidine-3-carboxamide]: “++ (Compounds with a Cisplatin sensitization value >0.02 μM but <0.2 μM are marked with “++.”)”.
As to `Nc1nn2cc(F)cnc2c1C(=O)Nc1cncc(F)c1N1CCC(C(=O)N2CC3CNCC3C2)CC1` (stereo not shown) [I-G-51, 2-amino-6-fluoro-N-(5-fluoro-4-(4-(octahydropyrrolo[3,4-c]pyrrole-2-carbonyl)piperidin-1-yl)pyridin-3-yl)pyrazolo[1,5-a]pyrimidine-3-carboxamide], the “Cisplatin Sensitization Assay” value is “+++ (Compounds with a Cisplatin sensitization value of <0.02 μM are marked with “+++.”)”.
Regarding `CN1CCN(CC2CCN(c3c(F)cncc3NC(=O)c3c(N)nn4cc(F)cnc34)CC2)CC1` [I-N-150, 2-amino-6-fluoro-N-(5-fluoro-4-(4-((4-methylpiperazin-1-yl)methyl)piperidin-1-yl)pyridin-3-yl)pyrazolo[1,5-a]pyrimidine-3-carboxamide], the “Cisplatin Sensitization Assay” value is listed as “+++ (Compounds with a Cisplatin sensitization value of <0.02 μM are marked with “+++.”)”.
Take `CN(C)C1CCN(c2ccncc2NC(=O)c2c(N)nn3cc(Cl)cnc23)CC1` [I-N-37, 2-amino-6-chloro-N-(4-(4-(dimethylamino)piperidin-1-yl)pyridin-3-yl)pyrazolo[1,5-a]pyrimidine-3-carboxamide]: the “Cisplatin Sensitization Assay” value was “++ (Compounds with a Cisplatin sensitization value >0.02 μM but <0.2 μM are marked with “++.”)”.
Then `CS(=O)(=O)c1ccc(-c2ccncc2NC(=O)c2c(N)nn3cc(F)cnc23)cc1` [I-C-61, 2-amino-6-fluoro-N-(4-(4-(methylsulfonyl)phenyl)pyridin-3-yl)pyrazolo[1,5-a]pyrimidine-3-carboxamide], with “+++ (Compounds with a Cisplatin sensitization value of <0.02 μM are marked with “+++.”)”; and `COc1cncc(NC(=O)c2c(N)nn3cc(F)cnc23)c1-c1cccnc1` [I-C-82, 2-amino-6-fluoro-N-(5′-methoxy-[3,4′-bipyridin]-3′-yl)pyrazolo[1,5-a]pyrimidine-3-carboxamide], with “+++ (Compounds with a Cisplatin sensitization value of <0.02 μM are marked with “+++.”)”; and `Nc1nn2cc(Cl)cnc2c1C(=O)Nc1cnccc1OC1CCCOC1` (stereo not shown) [I-O-65, 2-amino-6-chloro-N-(4-((tetrahydro-2H-pyran-3-yl)oxy)pyridin-3-yl)pyrazolo[1,5-a]pyrimidine-3-carboxamide], with “+++ (Compounds with a Cisplatin sensitization value of <0.02 μM are marked with “+++.”)”.
On to `CC(=O)N1CCC(c2ccncc2NC(=O)c2c(N)nn3cc(F)cnc23)CC1` [I-C-69, N-(4-(1-acetylpiperidin-4-yl)pyridin-3-yl)-2-amino-6-fluoropyrazolo[1,5-a]pyrimidine-3-carboxamide], for which the “Cisplatin Sensitization Assay” value is recorded as “+++ (Compounds with a Cisplatin sensitization value of <0.02 μM are marked with “+++.”)”.
On to `Nc1nn2cc(F)cnc2c1C(=O)Nc1cnccc1N1CCN2C(=O)CC[C@H]2C1` [I-N-217, (S)-2-amino-6-fluoro-N-(4-(6-oxohexahydropyrrolo[1,2-a]pyrazin-2(1H)-yl)pyridin-3-yl)pyrazolo[1,5-a]pyrimidine-3-carboxamide], for which the “Cisplatin Sensitization Assay” value is “++ (Compounds with a Cisplatin sensitization value >0.02 μM but <0.2 μM are marked with “++.”)”.
As for `CN1CCN(c2c(NC(=O)c3c(N)nn4cc(F)cnc34)cncc2C(F)F)CC1` [I-N-111, 2-amino-N-(5-(difluoromethyl)-4-(4-methylpiperazin-1-yl)pyridin-3-yl)-6-fluoropyrazolo[1,5-a]pyrimidine-3-carboxamide], the “Cisplatin Sensitization Assay” value is on record as “++ (Compounds with a Cisplatin sensitization value >0.02 μM but <0.2 μM are marked with “++.”)”.
As to `Nc1nn2cc(F)cnc2c1C(=O)Nc1cncc(F)c1N1CCN2C(=O)CCC[C@@H]2C1` [I-N-280, (R)-2-amino-6-fluoro-N-(5-fluoro-4-(6-oxohexahydro-1H-pyrido[1,2-a]pyrazin-2(6H)-yl)pyridin-3-yl)pyrazolo[1,5-a]pyrimidine-3-carboxamide], the “Cisplatin Sensitization Assay” value is “+++ (Compounds with a Cisplatin sensitization value of <0.02 μM are marked with “+++.”)”.
